Data: patent US6638938B1, “Method for preventing tissue injury from hypoxia” (Cell Therapeutics, Inc., priority 1993, dated 2003)

Key:
[1] = serum level of Lisofylline in hemorrhaged mice; assay type: in vivo; settings: male, mouse, intravenous, hemorrhaged Balb/C mice, 5 minutes after 100 mg/kg Lisofylline given with resuscitation blood, read-out: serum levels of Lisofylline
Procedure: (§1) This example illustrates a study of Lisofylline in a murine hemorrhage and resuscitation model. Male Balb/C mice, 8-12 weeks of age, were obtained from Harlan-Sprague Dawley (Indianapolis, Ind.). The animals were kept on a 12 hour light/dark cycle with free access to food and water. With this model, 30% of the calculated blood volume (approximately 0.55 ml for a 20 gram mouse) was withdrawn from a methoxyflurane anesthetized mouse by cardiac puncture over a 60-second period. The blood was collected into a heparinized syringe (5 units heparin), kept at 37° C. for one hour, then reinfused into the mouse through a retroorbital plexus injection. Using this method, one is able to resuscitate all hemorrhaged mice without complication. The total period of methoxyflurane anesthesia is less than 2 minutes in all cases. The mortality rate with this hemorrhage protocol is approximately 12%, with all deaths occurring over the 24 hours post hemorrhage, and most deaths occurring within the one hour post hemorrhage.
Mice were treated with 100 mg/kg Lisofylline in 0.2 ml PBS and given initially i.v., by retroorbital injection, then i.p. every 8 hours for a total of 9 doses. In hemorrhaged mice, the Lisofylline in PBS was added to the shed blood, and then given retroorbitally with the blood during the resuscitation phase. […]

IFN-γ = IFN-γ sandwich ELISA of BAL supernatants and plasma; assay type: in vivo, Balb/C mice
Procedure: as §1
(§2) Mice were treated with 100 mg/kg Lisofylline in 0.2 ml PBS and given initially i.v., by retroorbital injection, then i.p. every 8 hours for a total of 9 doses. In hemorrhaged mice, the Lisofylline in PBS was added to the shed blood, and then given retroorbitally with the blood during the resuscitation phase. In hemorrhaged Balb/C mice (n=3), sacrificed by exsanguination 5 minutes after receiving Lisofylline with the blood used for resuscitation, serum levels of Lisofylline were 44±6 μg/ml.
(§3) Three days following hemorrhage and resuscitation or the initiation of treatment with Lisofylline therapy in normal treated animals, mice were anesthetized with methoxyflurane and sacrificed by exsanguination through cardiac puncture into a heparinized (5 U) syringe. Normal mice, not subjected to hemorrhage/resuscitation or to treatment with Lisofylline, were included. Bronchoalveolar lavage (BAL) specimens, using 1.0 ml PBS injected and aspirated three times into the trachea and lungs, were obtained. Cells contained in the BAL were collected by centrifugation of BAL specimens. […] As determined by cytology, there was less than 3% contamination of alveolar macrophages with lymphocytes, neutrophils, or other mononuclear cell populations when BAL specimens are collected in normal Balb/C mice, but approximately 11±2% of isolated cells are neutrophils in mice subjected 3 days previously to 30% blood volume hemorrhage with resuscitation one hour later. […]
(§4) TNFα and IFN-γconcentrations in BAL supernatants and plasma were determined with sandwich ELISA assays using the monoclonal antibody pairs (i.e., unbiotinylated or biotinylated) MP6-XT3 for TNFα and XMG1.2 for IFN-γ(Pharmingen San Diego, Calif.). […]

[2] = test system: neutrophils in lung lavages; test: lung lavage neutrophils of intact rats given IL-1 intratracheally; assay type: in vivo, Sprague-Dawley rats
Procedure: Interleukin-1α (IL-1) and Lisofylline administration in Male Sprague-Dawley rats weighing 300-350 g (Sasco, Omaha, Neb.) were fed a normal diet and acclimated to altitude (Denver, Colo.) for at least 14 days before study. Rats were anesthetized with ketamine (90 mg/kg) and zylazine (7 mg/kg) intraperitoneally and then supplemented as needed with ketamine and zylazine and kept on a warming blanket. The trachea was cannulated with an indwelling 15 gauge stub adaptor tube. After 5 ventilated breaths (Harvard Apparatus Co., Millis, Mass.), IL-1 (0.5 ml, 50 ng) in sterile, endotoxin-free saline, was rapidly instilled intratracheally with a syringe, followed by another 5 ventilated breaths. Sham treated rats received identical anesthesia and surgery but were injected only with sterile saline intratracheally. […]
Saline (3.0 ml×2) was slowly injected intratracheally and then withdrawn. Recovered lavage fluid was quantitated and centrifuged for 5 min and the cell pellet resuspended in 1.0 ml of lavage. Total cells were counted in a hemocytometer and a cytospin preparation (Shandon Southern Products Ltd, Cheshire, England) Wright-stained and examined to determine the percentages of neutrophils.

TNFα = TNFα sandwich ELISA of BAL supernatants and plasma; assay type: in vivo, Balb/C mice
Procedure: as §1, §2, §3, §4

[3] = hemorrhaged/resuscitated mice treated for 72 hours
[4] = normal, unhemorrhaged mice treated

Compound: C[C@@H](O)CCCCn1c(=O)c2c(ncn2C)n(C)c1=O [Lisofylline, 1-R-(5-hydroxyhexyl)-3,7-dimethylxanthine]
- concentration at 5 min [1]: 44000 ± 6000 ng/mL
- IFN-γ levels in BAL supernatants (IFN-γ; [3]): 2 ± 2 pg/mL
- IFN-γ levels in plasma (IFN-γ; [3]): 173 ± 120 pg/mL
- IFN-γ content of BAL supernatants (IFN-γ; [4]): 16 ± 16 pg/mL
- IFN-γ in plasma (IFN-γ; [4]): 66 ± 48 pg/mL
- Total Lavage PMNs ([2]; IL-1 + Lisofylline (100 μg/kg)): 3.64 ± 0.84 (9)δ number × 10^6
- Total Lavage PMNs ([2]; Sham + Lisofylline (100 μg/kg)): 0.42 ± 0.14 (8)δ number × 10^6
- plasma TNFα concentrations (TNFα; hemorrhage/resuscitated/Lisofylline treated mice): 218 ± 49 pg/mL
- TNFα concentrations in BAL supernatants (TNFα; hemorrhaged/resuscitated mice treated): 73 ± 45 pg/mL
- plasma TNFα concentrations (TNFα; normal/Lisofylline treated mice): 116 ± 36 pg/mL
- TNFα in BAL supernatants (TNFα; unhemorrhaged mice treated, p<0.01 versus normal untreated): 676±80 pg/mil
